In paper PMC8287028 (Frontiers in Veterinary Science, 2021):
Values joined by “and” are separate entries in the source; they are usually repeats but may differ in a detail not shown here. Equal values may be shown once. “Also recorded” adds a separate entry of the source. Read-outs that look alike come from different tables or passages of the source.

What was measured:
[1] = Pharmacokinetics after intravenous apixaban, plasma concentrations by LC/MS; format: in vivo, dog; conditions: dogs; for Vd: read-out: Vd (volume of distribution); for AUC: read-out: AUC (area-under-the-curve); for C0: read-out: C0 (concentration at time zero); for clearance: read-out: CL (systemic clearance) (converted); for half-life: read-out: K10 T½ (elimination half-life) (converted); for MRT: read-out: MRT (mean residence time)
Procedure: All injection durations were identical.
(§1) Catheters were flushed with 0.9% saline, without heparin.
Analyses of plots and PK modeling were performed using compartmental methods in standard software (Phoenix, WinNonlin, Certara, St. Louis, MO). One-, 2- and 3-compartment models were fit to the plasma concentration data.

prothrombin time = test: Prothrombin time (PT) on citrated plasma of dosed dogs; format: in vivo, dog
Procedure: Coagulation assays were performed on platelet-poor, citrated plasma samples by a reference laboratory (Comparative Coagulation Laboratory, Animal Health Diagnostic Center, Ithaca, NY). […] The assay is configured with a bovine activated Factor X reagent that is added in excess to the test plasma and a chromogenic substrate of Factor Xa (STA Liquid anti-Xa, Diagnostica Stago). Residual, uninhibited Factor Xa cleaves the chromogenic substrate such that the inverse of the color change in the reaction mixture is proportional to the drug concentration in the test plasma. […] Assay controls, consisting of human plasma spiked with apixaban (STA Apixaban Controls, Diagnostica Stago) were analyzed before each batch of test samples to confirm assay performance. The apixaban levels in calibrators and controls are defined by the manufacturer from an internal reference assayed by HPLC-MS. […] A mechanical endpoint method (STA Compact, Diagnostica Stago) and human coagulation reagents were used to measure prothrombin time (Thromboplastin LI, Helena Diagnostics, Beaumont, TX) and activated partial thromboplastin time (Dade Actin FS, Dade Behring, Newark, DE). […] Tissue-factor (1:50,000 final dilution) activated TEG was performed using standard equipment (TEG-5000, Haemonetics, Braintree, MA) as previously reported ([35]), with assays conducted per established guidelines ([36]), with a modification to eliminate the rest time to facilitate rapid sample processing. Thromboelastography assays were conducted by experienced operators using four TEG channels and tracings terminated after maximum amplitude was established. Four values were extracted from TEG tracings: reaction time (R-time), clot formation time (K-time), clot formation angle (alpha), and maximum amplitude (MA).
Pairwise comparisons between continuous variables were conducted with Wilcoxon matched-pairs signed rank test, while comparisons of more than two groups were conducted using the Friedman test with Dunn's post-hoc adjustment. […]

[2] = test system: activated partial thromboplastin time; test: Activated partial thromboplastin time (aPTT) on citrated plasma of dosed dogs; format: in vivo, dog
Procedure: Coagulation assays were performed on platelet-poor, citrated plasma samples by a reference laboratory (Comparative Coagulation Laboratory, Animal Health Diagnostic Center, Ithaca, NY). […] The assay is configured with a bovine activated Factor X reagent that is added in excess to the test plasma and a chromogenic substrate of Factor Xa (STA Liquid anti-Xa, Diagnostica Stago). Residual, uninhibited Factor Xa cleaves the chromogenic substrate such that the inverse of the color change in the reaction mixture is proportional to the drug concentration in the test plasma. […] Assay controls, consisting of human plasma spiked with apixaban (STA Apixaban Controls, Diagnostica Stago) were analyzed before each batch of test samples to confirm assay performance. The apixaban levels in calibrators and controls are defined by the manufacturer from an internal reference assayed by HPLC-MS. […] A mechanical endpoint method (STA Compact, Diagnostica Stago) and human coagulation reagents were used to measure prothrombin time (Thromboplastin LI, Helena Diagnostics, Beaumont, TX) and activated partial thromboplastin time (Dade Actin FS, Dade Behring, Newark, DE). […]

major plasma proteins = test: Protein binding by ex vivo ultrafiltration of spiked plasma, LC/MS; format: in vitro ADME, dog
Procedure: For each dog a sample of anticoagulated platelet-poor plasma collected at baseline was centrifuged (16,000 g, 5 min, 4°C) and the supernatant filtered with a […] syringe filter. […] One aliquot was centrifuged (16,000 g, 30 min, 4°C) in a molecular exclusion device (Amicon Ultra 30k filter, Millipore-Sigma) to remove the major plasma proteins. The spiked plasma and the ultrafiltrate were then analyzed for apixaban by LC/MS as above. Protein binding (%) was determined as: [Total concentration] – [[…] Unbound concentration]/Total concentration ×100.

healthy mixed-breed dogs = test: Serum biochemistry profile before and after apixaban; format: in vivo, dog; parameters: TP / Bicarbonate: unit not given beside the values; Calcium / Magnesium / Globulin / ALT / AST / GGT / T.bili / Sodium / BUN / Creatinine: unit not given here; conditions: for ALT / AST / Albumin / BUN / Bicarbonate / Calcium / Creatinine / GGT / Globulin / Magnesium / Sodium / T.bili / TP / Amylase / Cholesterol / Glucose / Phosphate / Potassium / TIBC: individual dogs (Dog 1-6); for Amylase: in U/L (unit assumed); for TIBC: in µg/dL (unit assumed)
Procedure: as §1
Pairwise comparisons between continuous variables were conducted with Wilcoxon matched-pairs signed rank test, while comparisons of more than two groups were conducted using the Friedman test with Dunn's post-hoc adjustment. […] Comparisons of pharmacodynamic variables between baseline values and those at discrete sampling intervals were performed using the Friedman test with Dunn's post-hoc correction for multiple comparisons. […] Alpha was set at 0.05. Statistical analyses were performed using commercial software (Prism 9, GraphPad, La Jolla, CA).

dog factor Xa = conditions: in vitro, isolated factor Xa, cited from earlier work
[3] = both sexes, mixed-breed, dog, plasma, iv, 0.18 mg/kg, IV, mean dose 0.18 mg/kg, geometric mean
[4] = both sexes, mixed-breed, dog, plasma, iv, 0.18 mg/kg, IV, mean dose 0.18 mg/kg, mean of 6 dogs
[5] = IV, mean dose 0.18 mg/kg, individual dogs (Dog 1-6), 0.18 mg/kg
[6] = +24h after IV apixaban, in mg/dL (unit assumed)
[7] = +30h after PO apixaban, in mg/dL (unit assumed)
[8] = +30h after PO apixaban, in mmol/L (unit assumed)

Compound `COc1ccc(-n2nc(C(N)=O)c3c2C(=O)N(c2ccc(N4CCCCC4=O)cc2)CC3)cc1` [apixaban] has a Vd ([1]; both sexes, mixed-breed, dog, in vivo, iv, 0.18 mg/kg, IV, mean dose 0.18 mg/kg, individual dogs (Dog 1-6)) of 0.163 L/kg, an AUC [1, 3] of 5620 ng·h/mL and a C0 [1, 3] of 1000 ng/mL. The clearance [1, 3] was 0.52 mL/min/kg, the half-life [1, 3] was 3.9 h and the MRT [1, 3] was 5.6 h. The Vd [1, 3] was 0.175 L/kg, the C0 ([1]; both sexes, mixed-breed, dog, plasma, iv, 0.18 mg/kg, IV, mean dose 0.18 mg/kg, individual dogs (Dog 1-6)) was 1210 ng/mL and the AUC [1, 4] was 6030 ng·h/mL. For the same compound, the C0 [1, 4] was 1010 ng/mL, the clearance [1, 4] was 0.563 mL/min/kg and the half-life [1, 4] was ~4.1 h. It also gave an MRT [1, 4] of 6 h, a Vd [1, 4] of 0.177 L/kg and a concentration at 24 h ([1]; both sexes, mixed-breed, dog, plasma, IV 0.18 mg/kg, at 24 h, read-out: mean residual plasma concentration) of 17 ng/mL. The AUC ([1]; both sexes, mixed-breed, in vivo, IV, mean dose 0.18 mg/kg, one-compartment model, individual dogs (Dog 1-6)) was 8140 ng·h/mL, the “AUC (area-under-the-curve)” value ([1]; IV, mean dose 0.18 mg/kg, one-compartment model, individual dogs (Dog 1-6), 0.18 mg/kg) was 5,726.9 h*ng/ml and 4,802.6 h*ng/ml and 7,639.4 h*ng/ml and 7,330.9 h*ng/ml and 2,516.3 h*ng/ml and the “K10 (first order elimination rate)” value ([1]; IV, mean dose 0.18 mg/kg, geometric mean) was 0.2 h⁻¹. For the same compound, the “C0 (concentration at time zero)” value [1, 5] was 853.9 ng/ml and 1,108.0 ng/ml and 958.3 ng/ml and 1,005.0 ng/ml and 913.4 ng/ml, the “CL (systemic clearance)” value [1, 5] was 0.573 mL/min/kg and 0.683 mL/min/kg and 0.39 mL/min/kg and 0.367 mL/min/kg and 0.348 mL/min/kg and 1.01 mL/min/kg and the “K10 (first order elimination rate)” value [1, 5] was 0.2 1/h (3×) and 0.1 1/h (2×) and 0.4 1/h. The “K10 T½ (elimination half-life)” value [1, 5] was 3.3 h and 4.8 h and 5.9 h and 5.1 h and 1.9 h, the “K10 (first order elimination rate)” value ([1]; IV, mean dose 0.18 mg/kg, mean of 6 dogs) was 0.2 h⁻¹ and the PT versus baseline (prothrombin time; IV 0.18 mg/kg, at 5, 15, 30 and 60 min) was “significantly prolonged”. For the same compound, the “concentration required to double the PT from baseline” value (prothrombin time; IV, estimate from the regression equation line of Figure 2B) was 2,485 ng/ml, the PT versus baseline (prothrombin time; PO 0.2 mg/kg, at 4, 6 and 8 h) was “significantly prolonged” and the aPTT versus baseline ([2]; IV 0.18 mg/kg, at 5 and 15 min post-injection) was “significantly prolonged”. The aPTT versus baseline ([2]; PO 0.2 mg/kg, 0.2 mg/kg) was “not consistently affected; also recorded: did not have a significant effect”, the fraction unbound at 500 ng/ml (major plasma proteins; both sexes, mixed-breed, platelet-poor plasma, dog plasma spiked at 500 ng/ml, ultrafiltration, mean of 6 dogs, using 7 ng/ml for the deproteinated samples) was 0.014 and the “apixaban concentration in deproteinated samples” value (major plasma proteins; ultrafiltrate of dog plasma spiked at 500 ng/ml, all samples) was < 7 ng/mL. The ALT (healthy mixed-breed dogs; +24h after IV apixaban) was 45 (2×) and 114 and 30 (2×) and 86, the AST (healthy mixed-breed dogs; +24h after IV apixaban) was 34 and 44 and 21 and 32 (2×) and 31 and the Albumin (healthy mixed-breed dogs; +24h after IV apixaban) was 3.9 and 3.4 (2×) and 3.5 and 3.7 and 3.8. For the same compound, the BUN (healthy mixed-breed dogs; +24h after IV apixaban) was 16 (2×) and 19 and 30 and 20 and 21, the Bicarbonate (healthy mixed-breed dogs; +24h after IV apixaban) was 23 and 18 (2×) and 21 and 19 (2×) and the Calcium (healthy mixed-breed dogs; +24h after IV apixaban) was 10.0 (2×) and 8.9 and 10.2 and 9.9 and 9.6. For the same compound, the Creatinine (healthy mixed-breed dogs; +24h after IV apixaban) was 0.8 and 0.7 (2×) and 1 (2×) and 0.9, the GGT (healthy mixed-breed dogs; +24h after IV apixaban) was 2 (3×) and 3 (2×) and 6 and the Globulin (healthy mixed-breed dogs; +24h after IV apixaban) was 2.3 and 2.1 (2×) and 2.4 and 2.0 (2×). For the same compound, the Magnesium (healthy mixed-breed dogs; +24h after IV apixaban) was 1.8 (2×) and 1.6 and 1.7 (3×), the Sodium (healthy mixed-breed dogs; +24h after IV apixaban) was 147 and 146 (3×) and 149 and 148 and the T.bili (healthy mixed-breed dogs; +24h after IV apixaban) was 0.0 (4×) and 0.1 (2×). For the same compound, the TP (healthy mixed-breed dogs; +24h after IV apixaban) was 6.2 and 5.5 and 5.8 (2×) and 5.6 and 5.7, the Amylase (healthy mixed-breed dogs; +24h after IV apixaban) was 467 and 362 and 561 and 514 and 451 and 707 and the Cholesterol (healthy mixed-breed dogs; [6]) was 174 and 180 and 226 and 129 and 127 and 173. The Glucose (healthy mixed-breed dogs; [6]) was 58 and 39 and 93 and 100 and 85 and 52, the Phosphate (healthy mixed-breed dogs; [6]) was 3.9 and 3.7 and 3.3 and 4.4 and 3.6 and 4.1 and the Potassium (healthy mixed-breed dogs; +24h after IV apixaban, in mmol/L (unit assumed)) was 4.5 and 4.2 and 4.4 and 4.3. The TIBC (healthy mixed-breed dogs; +24h after IV apixaban) was 391 and 352 and 385 and 345 and 313 and 356, the ALT (healthy mixed-breed dogs; +30h after PO apixaban) was 26 (2×) and 33 and 36 and 39 and 35 and the AST (healthy mixed-breed dogs; +30h after PO apixaban) was 34 and 22 and 32 (2×) and 45 and 33. For the same compound, the Albumin (healthy mixed-breed dogs; +30h after PO apixaban) was 3.9 and 3.6 (2×) and 3.4 and 3.5 (2×), the BUN (healthy mixed-breed dogs; +30h after PO apixaban) was 19 (2×) and 12 and 10 and 18 and 24 and the Calcium (healthy mixed-breed dogs; +30h after PO apixaban) was 10.2 (2×) and 9.7 (3×) and 9.8. The Creatinine (healthy mixed-breed dogs; +30h after PO apixaban) was 0.9 and 0.8 (2×) and 0.6 and 0.7 and 1, the GGT (healthy mixed-breed dogs; +30h after PO apixaban) was 0 (2×) and 4 (2×) and 6 (2×) and the Globulin (healthy mixed-breed dogs; +30h after PO apixaban) was 2.1 (3×) and 2.5 and 2 and 2.3. The Magnesium (healthy mixed-breed dogs; +30h after PO apixaban) was 1.7 (5×) and 1.8, the Phosphate (healthy mixed-breed dogs; +30h after PO apixaban) was 2.8 and 3.9 (2×) and 3.7 (2×) and 3.8 and the Sodium (healthy mixed-breed dogs; +30h after PO apixaban) was 147 (4×) and 150 and 146. For the same compound, the T.bili (healthy mixed-breed dogs; +30h after PO apixaban) was 0.1 (4×) and 0.0 (2×), the Amylase (healthy mixed-breed dogs; +30h after PO apixaban) was 469 and 325 and 515 and 494 and 353 and 638 and the TP (healthy mixed-breed dogs; +30h after PO apixaban, in g/dL (unit assumed)) was 6 and 5.7 and 6.1 and 5.4 and 5.8 and 5.6. The Cholesterol (healthy mixed-breed dogs; [7]) was 198 and 192 and 244 and 106 and 162 and 186, the Glucose (healthy mixed-breed dogs; [7]) was 77 and 93 and 76 and 78 and 102 and 87 and the Bicarbonate (healthy mixed-breed dogs; [8]) was 22 and 20 and 17 and 18 and 14 and 19. The Potassium (healthy mixed-breed dogs; [8]) was 4.3 and 4.5 and 3.9 and 4.9 and 4.6 and 4.8, the TIBC (healthy mixed-breed dogs; +30h after PO apixaban) was 391 and 331 and 372 and 288 and 336 and 329 and the “chloride and GGT, baseline versus 24 h post-injection” value (healthy mixed-breed dogs; IV) was “statistically significant reductions”. For the same compound, the biochemical parameters (healthy mixed-breed dogs; PO, baseline versus 30 h post-dose) was “no changes”, the “inhibitor constant (Ki)” value (dog factor Xa) was 0.78 ng/mL and the Ki (dog factor Xa; read-out: inhibitor constant (Ki)) was 1.7 nM.
